One experiment concerns the target T1, KIRK 2 channel (Homo sapiens, UniProt P78508).
T1 construct: primers that flank the open-reading frame of KIRK-2 were used to PCR amplify this region of the genomic clone; expressed in transfected cells; host or cells: Xenopus laevis oocytes injected with polyadenylated KIRK 2 cRNA (from pSPORT/KIRK-2)
T1 sequence (P78508 1-379): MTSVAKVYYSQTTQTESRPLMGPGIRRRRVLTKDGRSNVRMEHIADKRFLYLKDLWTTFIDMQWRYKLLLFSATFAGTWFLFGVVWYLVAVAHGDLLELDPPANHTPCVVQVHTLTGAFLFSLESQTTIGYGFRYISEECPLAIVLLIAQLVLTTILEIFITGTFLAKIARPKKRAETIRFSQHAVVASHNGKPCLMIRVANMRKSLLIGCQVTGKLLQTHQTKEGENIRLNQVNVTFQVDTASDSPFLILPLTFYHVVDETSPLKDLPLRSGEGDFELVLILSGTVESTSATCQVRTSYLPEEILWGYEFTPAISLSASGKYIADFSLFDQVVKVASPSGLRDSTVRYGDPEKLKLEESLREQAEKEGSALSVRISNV
In words: Two-microelectrode voltage-clamp of Xenopus oocytes injected with KIRK 2 cRNA. The class given is cell-based. To be noted: for inhibition of KIRK 2 current: Xenopus oocytes expressing KIRK 2, Ba^2+ applied at 0.03 μM to 10 mM (n=8), Cs^+ n=6, data not shown. Here is the method: Oocytes were collected under tricaine (3-aminobenzoic acid ethyl ester, 0.17%; Sigma, St. Louis, Mo.) and cold-induced anesthesia from adult African clawed frogs, Xenopus laevis (Nasco, Ft. Atkinson, Wis.), and defolliculated by blunt dissection in Ca^2+ free ND-96 following 40 minutes incubation in 2 mg/ml collagenase (Type II; Sigma, St. Louis, Mo.). ND-96 consisted of 96 mM NaCl, 2 mM KCl, 1 mM MgCl2, 0.3 mM CaCl2, 5 mM HEPES, pH 7.6.The following day, a glass injection pipette manually broken to ~15 μm tip diameter was used to inject oocytes with […] of polyadenylated cRNA dissolved in water at 15, 30 or 100 ng/μl resulting in injection of 0.6, 1.2, or 4 ng of cRNA. Prior to recordings, oocytes were maintained 2-7 days at 20° C. in ND-96 supplemented with gentamycin ([…]; Bio-Whittaker, Walkersville, Md.) and sodium-pyruvate (2.5 mM; Sigma).
Electrophysiological recordings were conducted at room temperature. Oocyte resting membrane potential was measured in ND-96 using 30-80 M.OMEGA. glass microelectrodes filled with 3M KCl For two-microelectrode voltage-clamp recordings, the voltage-measuring pipette had resistances of 1.5 to 2.0 M.OMEGA., while the current-injection pipette had resistances of 0.7-0.9 M.OMEGA.; both pipettes were filled with 3M KCl. All voltage-clamp recordings were conducted in bath solutions containing 1 mM MgCl2, 0.3 mM CaCl2, and 5 mM HEPES. For experiments conducted in 50 mM K^+, the solution contained 50 mM KCl and 50 mM NaCl. For lower potassium concentrations, this solution was mixed with an identical solution in which choline was substituted for potassium. Pairs of solutions at pH 5.4 and 8.4, containing 50 mM KCl and either 50 mM potassium-acetate or 50 mM potassium-hydrogen phthalate (biphthalate; Sigma, St. Louis, Mo.) were mixed to vary pH.
Two-microelectrode, voltage-clamp recordings were conducted using the GeneClamp 500 (Axon Instruments, La Jolla, Calif.) interfaced with a 486 Computer running the PCLAMP 6.0 (Axon Instruments, La Jolla, Calif.) suite of programs. Currents were filtered at 2 kHz and sampled every 100 μs. Current amplitude was measured during the last 4 ms of a 400 ms test pulse. Data were analyzed and plotted using PCLAMP 6.0 and SIGMA PLOT 5.0 (Jandel Scientific, San Rafael, Calif.). Statistical significance was determined by the Student's T-test.

Take `[Ba+2]` [Ba^2+]: the “fraction of the transmembrane electric field sensed by the binding site (Woodhull equation fit of Ki versus membrane potential)” value at KIRK 2 channel (Ki values at holding potentials -120, -80 and -40 mV) was found to be 46%. In addition, at KIRK 2 channel, the “inhibition of KIRK 2 current” value is listed as “reversible, concentrationdependent inhibition”. For the same compound, the “Hill coefficient of logistic fit of concentration-dependence of KIRK 2 inhibition” value at KIRK 2 channel (three holding potentials (-120, -80, -40 mV), n=8) is 2.

With `[Cs+]` [Cs^+], the “inhibition of KIRK 2 current” value against KIRK 2 channel was “reversible and voltage-dependent”. Moreover, at KIRK 2 channel (apparent only at the most negative potentials tested, n=6, data not shown), the “effectiveness of block of KIRK 2 compared with Ba^2+” value is “far less effective than block by Ba^2+”.

“KIRK-3 (human kidney inward rectifier K channel 3)” gave a whole-cell current at a holding potential of -160 mV in Xenopus oocytes, two-microelectrode voltage clamp with KIRK 1 (ROMK channel) of 54%.

The record behind these values is US5831055A, “DNA encoding a novel kidney ATP-dependent potassium channels” (Pharmacia & Upjohn Company, priority 1996, dated 1998).
